This note sets out measurements from BindingDB's records for doi:10.7270/Q2V986FT (Emory University, 2007).

SMILES strings stand for the structures.

This test has as its target T1, 14-3-3 protein gamma (Homo sapiens, UniProt P61981).
T1 sequence (P61981 whole entry): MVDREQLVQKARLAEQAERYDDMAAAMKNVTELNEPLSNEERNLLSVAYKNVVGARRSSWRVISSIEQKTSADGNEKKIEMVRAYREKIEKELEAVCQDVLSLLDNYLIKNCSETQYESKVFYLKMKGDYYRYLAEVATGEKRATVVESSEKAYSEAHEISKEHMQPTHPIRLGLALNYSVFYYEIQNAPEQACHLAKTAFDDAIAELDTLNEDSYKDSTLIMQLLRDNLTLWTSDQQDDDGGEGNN
As to the kind of experiment: modulators of 14-3-3 gamma client binding – dose response (AID 711).
What is called IC50 is the midpoint of a concentration-inhibition curve. Low values mean greater potency, high ones weaker potency. For `CC(N=O)C(=O)NCc1ccccn1` (stereo not drawn) [(2E)-2-(hydroxyimino)-N-(pyridin-2-ylmethyl)propanamide], the IC50 was more than 50 µM.
Molecule `CC1=NC(c2ccccc2)C(C#N)(C#N)C(C#N)(C#N)C1` (stereo not drawn) [SMR000037705] had an IC50 of 3.15 µM.
To `Cc1ccc(C2C3CN(C(C)C)CCC3=C(C#N)C(=N)C2(C#N)C#N)cc1` (stereo not drawn) [SMR000034220] belongs more than 50 µM.
